Assays:
Type in all cases: in vivo
[1] = peroral toxicity to mammals (rat); conditions: in vivo, po, dose required to achieve mortality rate of 50 percent, read-out: A.O. RAT LD50
Experimental: (§1) Certain of these compositions were also evaluated to determine their peroral toxicity to mammals. The animal selected for this experiment was the rat. The test results obtained are expressed in terms of the number of milligrams of compositions per kilogram of weight of the animal required to achieve a mortality rate of 50 percent (LD50).

[2] = test system: root-knot nematode, Meloidogyne incognita var. acrita; experiment: Nematocide Test; design: key: 1: severe galling, equal to untreated plants; 2: moderate galling; 3: light galling; 4: very light galling; 5: no galling, perfect control; conditions: 3.33 m.g. of test compound per jar; cucumber, approximately 3 weeks
Experimental: The test organism used was the infective migratory larvae of the root-knot nematode, Meloidogyne incognita var. acrita, reared in the greenhouse on roots of cucumber plants. Infected plants were removed from the culture, and the roots are chopped very finely. A small amount of this inoculum was added to a pint jar containing approximately 180 cc. of soil. The jars were capped and incubated for one week at room temperature. During this period eggs of the nematode were hatched, and the larval forms migrated into the soil.
Ten ml. of the test formulation were added to each of the two jars for each dosage tested. Following the addition of chemical, the jars were capped, and the contents thoroughly mixed on a ball mill for 5 minutes.
The test compounds were formulated by a standard procedure of solution in acetone addition of an emulsifier, and dilution with water. Primary screening tests were conducted at 3.33 m.g. of the test compound per jar.
The jars were left capped at room temperature for a period of 48 hours, and the contents then transferred to 3 inch pots. Subsequently, the pots were seeded to cucumber as an indicator crop and placed in the greenhouse where they were cared for in the normal fashion for approximately 3 weeks.
The cucumber plants were then taken from the pots, the soil removed from the roots, and the amount of galling visually rated.
In the test for activity against nematodes activity was rated as follows: […]

rat = experiment: peroral toxicity to mammals (rat); conditions: dose required to achieve mortality rate of 50 percent
Experimental: as §1

| Molecule | LD50 [1] [mg/kg] | NEMATODES activity rating (galling) [2] | A.O. RAT LD50 (rat) [mg/kg] |
| --- | --- | --- | --- |
| CC(C)C(=O)C(C)(C)SN(C)C(=O)ON=C1SC(C)(C)C(=O)N1C [2-[O-[N-methyl-(2,4-dimethyl-3-oxo-2-pentanesulfenyl)carbamoyl]oximino]-3,5,5-trimethylthiazolidin-4-one] | 226 |  |  |
| CSC(C)=NOC(=O)N(C)SSC(C)(C)C(=O)C(C)C [1-Methylthioacetaldehyde 0-[N-methyl-N-(2,4-dimethyl-3-oxo-2-pentanethiosulfenyl)carbamoyl]oxime] | 226 | 3 |  |
| 1-(2-Cyanoethylthio)acetaldehyde 0-[N-methyl-N-(2,4-dimethyl-3-oxo-2-pentanethiosulfenyl)carbamoyl]oxime |  | 5 |  |
| CSC(C)=NOC(=O)N(C)SSC(C)(C)C(=O)c1ccccc1 [1-Methylthioacetaldehyde O-[N-methyl-N-(2-benzoyl-2-propanethiosulfenyl)carbamoyl]oxime] | 226 |  |  |
| CC(C)C(=O)C(C)(C)SN(C)C(=O)ON=CC(C)(C)[N+](=O)[O-] [2-Nitro-2-methylpropionaldehyde O-[N-methyl-N-(2,4-dimethyl-3-oxo-2-pentanesulfenyl)carbamoyl]oxime] | 12 |  |  |
| CC(C)C(=O)C(C)(C)SN(C)C(=O)Oc1cccc2c1OC(C)(C)C2 [7-[N-methyl-N-(2,4-dimethyl-3-oxo-2-pentanesulfenyl)carbamoyloxy]-2,2-dimethyl-2,3-dihydrobenzofuran] | 31 |  |  |
| CC(C)C(=O)C(C)(C)SN(C)C(=O)ON=C1CSCCS1 [2-[[O-[N-methyl-N-(2,4-dimethyl-3-oxo-2-pentanesulfenyl)carbamoyl]oximino]]-1,4-dithiane] |  | 3 |  |
| CSC(C)=NOC(=O)N(C)SC(C)(C)C(=O)C(C)C [1-Methylthioacetaldehyde O-[N-methyl-N-(2,4-dimethyl-3-oxo-2-pentanesulfenyl)carbamoyl]oxime] | 134 | 1 |  |
| CC(C)C(=O)C(C)(C)SN(C)C(=O)ON=C(C#N)c1ccccc1 [α-Cyanobenzaldehyde 0-[N-methyl-N-(2,4-dimethyl-3-oxo-2-pentanesulfenyl)carbamoyl]oxime] |  | 3 |  |
| CC(=NOC(=O)N(C)SSC(C)(C)C(=O)C(C)C)SC(C)C [1-Isopropylthioacetaldehyde 0-[N-methyl-N-(2,4-dimethyl-3-oxo-2-pentanethiosulfenyl)carbamoyl]oxime] | 42 | 4 |  |
| CC(=NOC(=O)N(C)SC(C)(C)C(=O)C(C)C)SC(C)C [1Isopropylthioacetaldehyde O-[N-methyl-N-(2,4-dimethyl-3-oxo-2-pentanesulfenyl)carbamoyl]oxime] | 37 | 3 |  |
| 4-[[0-[N-Methyl-N-(2,4-dimethyl-3-oxo-2-pentanethiosulfenyl)carbamoyl]oximino]]-5-methyl-1,3-oxathiolane |  | 3 | 8 |
| CSC(C)(C)C=NOC(=O)N(C)SC(C)(C)C(=O)C(C)C [2-Methylthio-2-methylpropionaldehyde O-[N-methyl-N-(2,4-dimethyl-3-oxo-2-pentanesulfenyl)carbamoyl]oxmine] |  | 3 |  |
| CC(C)C(=O)C(C)(C)SN(C)C(=O)ON=C1SCOC1C (centres unmarked) [4-[[O-[N-methyl-N-(2,4-dimethyl-3-oxo-2-pentanesulfenyl)carbamoyl]oximino]]-5-methyl-1,3-oxathiolane] | 16 |  |  |
| CN(SC(C)(C)C(=O)c1ccccc1)C(=O)ON=C1SC(C)(C)C(=O)N1C [2-[[O-[N-methyl-N-(2-benzoyl-2-propanesulfenyl)carbamoyl]oximino]]-3,5,5-trimethylthiazolidin-4-one] |  | 3 |  |
